The values that follow come from ChEMBL document CHEMBL4028801, “A multifactorial approach to hepatobiliary transporter assessment enables improved therapeutic compound development” (Toxicol Sci, 2013).

The target in one experiment is Bile salt export pump (Homo sapiens, UniProt O95342). Kind of experiment: Inhibition of human BSEP overexpressed in Sf9 cell membrane vesicles assessed as uptake of [3H]-taurocholate in presence of ATP measured after 15 to 20 mins by membrane vesicle transport assay. The format is ADME, cell-based.
Experiment [1] concerns the target T1, ATP-binding cassette sub-family C member 4 (Homo sapiens, UniProt O15439).
T1 sequence (O15439 whole entry): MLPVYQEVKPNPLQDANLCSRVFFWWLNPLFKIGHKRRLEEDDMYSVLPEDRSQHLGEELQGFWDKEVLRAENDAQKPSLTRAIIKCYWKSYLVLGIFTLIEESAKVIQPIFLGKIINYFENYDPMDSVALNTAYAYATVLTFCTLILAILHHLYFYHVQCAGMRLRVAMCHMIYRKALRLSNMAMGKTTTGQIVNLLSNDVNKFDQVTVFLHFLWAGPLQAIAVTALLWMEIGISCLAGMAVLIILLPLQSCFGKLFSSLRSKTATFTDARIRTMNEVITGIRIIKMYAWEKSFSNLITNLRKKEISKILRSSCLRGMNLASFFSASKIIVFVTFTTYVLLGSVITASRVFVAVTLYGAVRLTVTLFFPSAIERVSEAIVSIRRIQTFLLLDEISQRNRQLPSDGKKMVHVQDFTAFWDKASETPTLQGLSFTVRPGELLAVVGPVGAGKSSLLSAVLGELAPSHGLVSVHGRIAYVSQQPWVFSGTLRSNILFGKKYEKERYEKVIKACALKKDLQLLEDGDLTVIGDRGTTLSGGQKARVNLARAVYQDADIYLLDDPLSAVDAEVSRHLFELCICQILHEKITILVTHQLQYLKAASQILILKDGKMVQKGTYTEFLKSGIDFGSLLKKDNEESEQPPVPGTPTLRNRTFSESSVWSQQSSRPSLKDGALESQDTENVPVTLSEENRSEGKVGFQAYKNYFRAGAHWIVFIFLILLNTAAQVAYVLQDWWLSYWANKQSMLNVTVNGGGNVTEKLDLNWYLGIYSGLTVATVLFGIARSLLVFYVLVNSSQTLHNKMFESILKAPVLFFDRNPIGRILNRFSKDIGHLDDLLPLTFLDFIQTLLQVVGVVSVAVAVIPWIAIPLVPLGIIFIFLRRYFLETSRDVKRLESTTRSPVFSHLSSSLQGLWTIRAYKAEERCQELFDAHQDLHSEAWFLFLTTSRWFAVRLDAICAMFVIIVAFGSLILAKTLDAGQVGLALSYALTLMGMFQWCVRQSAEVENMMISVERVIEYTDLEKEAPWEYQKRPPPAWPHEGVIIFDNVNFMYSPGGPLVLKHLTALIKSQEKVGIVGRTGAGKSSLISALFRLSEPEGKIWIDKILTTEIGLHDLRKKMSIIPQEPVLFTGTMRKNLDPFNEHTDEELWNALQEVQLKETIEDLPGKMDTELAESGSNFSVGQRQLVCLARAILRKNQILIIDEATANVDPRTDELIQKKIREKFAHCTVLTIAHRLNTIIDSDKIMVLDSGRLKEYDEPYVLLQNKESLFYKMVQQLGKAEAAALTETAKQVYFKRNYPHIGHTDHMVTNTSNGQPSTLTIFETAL
Kind of experiment: Inhibition of human MRP4 overexpressed in Sf9 cell membrane vesicles assessed as uptake of [3H]-estradiol-17beta-D-glucuronide in presence of ATP and GSH measured after 20 mins by membrane vesicle transport assay. The format is ADME, cell-based.

Experiment [2] deals with ATP-binding cassette sub-family C member 2 (Homo sapiens, UniProt Q92887). Kind of experiment: Inhibition of human MRP2 overexpressed in Sf9 cell membrane vesicles assessed as uptake of [3H]-estradiol-17beta-D-glucuronide in presence of ATP and GSH measured after 20 mins by membrane vesicle transport assay.
Experiment [3] concerns the target ATP-binding cassette sub-family C member 3 (Homo sapiens, UniProt O15438). In words: Inhibition of human MRP3 overexpressed in Sf9 insect cell membrane vesicles assessed as uptake of [3H]-estradiol-17beta-D-glucuronide in presence of ATP and GSH measured after 10 mins by membrane vesicle transport assay. The format is ADME, cell-based.

Molecules are shown by their SMILES. Where a name gives a salt, the structure may show the parent alone.

Sequence of ATP-binding cassette sub-family C member 3 (O15438 whole entry): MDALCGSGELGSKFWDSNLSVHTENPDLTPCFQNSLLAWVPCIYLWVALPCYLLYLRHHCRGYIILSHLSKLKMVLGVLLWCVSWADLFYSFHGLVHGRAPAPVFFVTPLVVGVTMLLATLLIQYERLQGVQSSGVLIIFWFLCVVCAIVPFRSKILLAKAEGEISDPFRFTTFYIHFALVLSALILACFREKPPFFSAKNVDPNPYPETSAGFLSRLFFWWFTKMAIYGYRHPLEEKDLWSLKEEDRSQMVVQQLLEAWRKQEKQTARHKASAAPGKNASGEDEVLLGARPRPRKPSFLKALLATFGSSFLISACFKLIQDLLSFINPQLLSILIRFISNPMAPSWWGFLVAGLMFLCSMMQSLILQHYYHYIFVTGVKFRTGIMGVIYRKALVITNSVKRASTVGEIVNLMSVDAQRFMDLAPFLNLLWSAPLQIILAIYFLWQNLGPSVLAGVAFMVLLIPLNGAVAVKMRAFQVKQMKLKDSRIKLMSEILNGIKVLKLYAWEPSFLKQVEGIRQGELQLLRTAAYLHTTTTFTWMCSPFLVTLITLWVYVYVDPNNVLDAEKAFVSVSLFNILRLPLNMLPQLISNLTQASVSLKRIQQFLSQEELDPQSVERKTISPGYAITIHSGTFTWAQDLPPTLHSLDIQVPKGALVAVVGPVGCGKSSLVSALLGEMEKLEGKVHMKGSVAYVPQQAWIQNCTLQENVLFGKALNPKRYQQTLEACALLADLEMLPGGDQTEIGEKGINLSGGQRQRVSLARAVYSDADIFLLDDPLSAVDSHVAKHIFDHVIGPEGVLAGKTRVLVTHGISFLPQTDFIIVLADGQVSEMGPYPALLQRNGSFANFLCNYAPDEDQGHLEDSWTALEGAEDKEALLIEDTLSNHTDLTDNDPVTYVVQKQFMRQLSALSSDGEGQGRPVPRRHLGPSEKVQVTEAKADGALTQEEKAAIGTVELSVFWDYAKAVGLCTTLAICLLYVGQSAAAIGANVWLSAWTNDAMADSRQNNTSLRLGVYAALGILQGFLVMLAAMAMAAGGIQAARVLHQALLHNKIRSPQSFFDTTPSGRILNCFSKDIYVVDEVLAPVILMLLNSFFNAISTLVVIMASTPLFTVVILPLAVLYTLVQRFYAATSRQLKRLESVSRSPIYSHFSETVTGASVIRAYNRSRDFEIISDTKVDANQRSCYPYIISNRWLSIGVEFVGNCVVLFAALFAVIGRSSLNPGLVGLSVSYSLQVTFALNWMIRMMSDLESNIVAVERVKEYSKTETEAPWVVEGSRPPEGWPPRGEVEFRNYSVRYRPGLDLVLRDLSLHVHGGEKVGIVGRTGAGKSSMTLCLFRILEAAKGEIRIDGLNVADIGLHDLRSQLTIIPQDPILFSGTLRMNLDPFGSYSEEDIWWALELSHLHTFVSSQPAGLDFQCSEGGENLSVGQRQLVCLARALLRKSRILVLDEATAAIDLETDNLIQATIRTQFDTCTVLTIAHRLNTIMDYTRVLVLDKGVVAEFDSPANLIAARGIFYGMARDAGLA
Sequence of ATP-binding cassette sub-family C member 2 (Q92887 whole entry): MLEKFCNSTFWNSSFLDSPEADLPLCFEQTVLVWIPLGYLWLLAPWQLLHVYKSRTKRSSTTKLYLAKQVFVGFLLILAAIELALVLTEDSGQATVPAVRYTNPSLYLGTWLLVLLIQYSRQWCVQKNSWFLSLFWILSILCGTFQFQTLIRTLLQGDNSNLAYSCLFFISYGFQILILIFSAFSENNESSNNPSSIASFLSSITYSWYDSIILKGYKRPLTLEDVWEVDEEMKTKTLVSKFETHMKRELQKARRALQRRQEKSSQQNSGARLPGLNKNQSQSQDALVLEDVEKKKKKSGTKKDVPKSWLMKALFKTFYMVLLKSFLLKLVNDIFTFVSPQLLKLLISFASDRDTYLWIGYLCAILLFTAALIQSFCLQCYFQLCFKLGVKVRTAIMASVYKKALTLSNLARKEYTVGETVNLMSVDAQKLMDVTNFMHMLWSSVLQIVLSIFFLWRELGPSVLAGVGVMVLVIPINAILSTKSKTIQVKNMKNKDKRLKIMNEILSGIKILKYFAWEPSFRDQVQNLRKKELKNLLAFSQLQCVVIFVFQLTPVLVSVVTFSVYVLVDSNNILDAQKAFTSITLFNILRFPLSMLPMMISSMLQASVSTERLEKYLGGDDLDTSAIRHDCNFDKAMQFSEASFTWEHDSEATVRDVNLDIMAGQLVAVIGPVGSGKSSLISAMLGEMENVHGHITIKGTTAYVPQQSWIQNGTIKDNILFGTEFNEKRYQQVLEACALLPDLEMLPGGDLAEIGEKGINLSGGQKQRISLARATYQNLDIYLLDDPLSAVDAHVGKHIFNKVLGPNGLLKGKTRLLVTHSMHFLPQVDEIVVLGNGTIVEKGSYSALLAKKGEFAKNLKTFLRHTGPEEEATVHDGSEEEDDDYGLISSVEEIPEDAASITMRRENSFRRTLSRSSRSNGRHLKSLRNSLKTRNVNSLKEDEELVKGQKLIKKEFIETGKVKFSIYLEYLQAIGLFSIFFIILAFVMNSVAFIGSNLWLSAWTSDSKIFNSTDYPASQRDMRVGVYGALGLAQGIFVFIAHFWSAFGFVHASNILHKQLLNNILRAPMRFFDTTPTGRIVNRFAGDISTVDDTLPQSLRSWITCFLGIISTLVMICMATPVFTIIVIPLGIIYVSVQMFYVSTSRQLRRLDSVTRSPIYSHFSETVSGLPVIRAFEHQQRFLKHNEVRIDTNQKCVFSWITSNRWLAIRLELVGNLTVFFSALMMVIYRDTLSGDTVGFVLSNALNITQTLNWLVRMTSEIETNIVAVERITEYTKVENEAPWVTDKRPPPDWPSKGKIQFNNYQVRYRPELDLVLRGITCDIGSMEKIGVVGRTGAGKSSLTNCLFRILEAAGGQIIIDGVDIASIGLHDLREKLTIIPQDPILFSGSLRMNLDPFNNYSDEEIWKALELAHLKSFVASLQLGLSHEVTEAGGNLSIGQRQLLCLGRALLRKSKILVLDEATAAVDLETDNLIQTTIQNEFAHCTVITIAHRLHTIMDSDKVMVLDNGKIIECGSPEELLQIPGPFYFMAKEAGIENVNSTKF
Sequence of Bile salt export pump (O95342 whole entry): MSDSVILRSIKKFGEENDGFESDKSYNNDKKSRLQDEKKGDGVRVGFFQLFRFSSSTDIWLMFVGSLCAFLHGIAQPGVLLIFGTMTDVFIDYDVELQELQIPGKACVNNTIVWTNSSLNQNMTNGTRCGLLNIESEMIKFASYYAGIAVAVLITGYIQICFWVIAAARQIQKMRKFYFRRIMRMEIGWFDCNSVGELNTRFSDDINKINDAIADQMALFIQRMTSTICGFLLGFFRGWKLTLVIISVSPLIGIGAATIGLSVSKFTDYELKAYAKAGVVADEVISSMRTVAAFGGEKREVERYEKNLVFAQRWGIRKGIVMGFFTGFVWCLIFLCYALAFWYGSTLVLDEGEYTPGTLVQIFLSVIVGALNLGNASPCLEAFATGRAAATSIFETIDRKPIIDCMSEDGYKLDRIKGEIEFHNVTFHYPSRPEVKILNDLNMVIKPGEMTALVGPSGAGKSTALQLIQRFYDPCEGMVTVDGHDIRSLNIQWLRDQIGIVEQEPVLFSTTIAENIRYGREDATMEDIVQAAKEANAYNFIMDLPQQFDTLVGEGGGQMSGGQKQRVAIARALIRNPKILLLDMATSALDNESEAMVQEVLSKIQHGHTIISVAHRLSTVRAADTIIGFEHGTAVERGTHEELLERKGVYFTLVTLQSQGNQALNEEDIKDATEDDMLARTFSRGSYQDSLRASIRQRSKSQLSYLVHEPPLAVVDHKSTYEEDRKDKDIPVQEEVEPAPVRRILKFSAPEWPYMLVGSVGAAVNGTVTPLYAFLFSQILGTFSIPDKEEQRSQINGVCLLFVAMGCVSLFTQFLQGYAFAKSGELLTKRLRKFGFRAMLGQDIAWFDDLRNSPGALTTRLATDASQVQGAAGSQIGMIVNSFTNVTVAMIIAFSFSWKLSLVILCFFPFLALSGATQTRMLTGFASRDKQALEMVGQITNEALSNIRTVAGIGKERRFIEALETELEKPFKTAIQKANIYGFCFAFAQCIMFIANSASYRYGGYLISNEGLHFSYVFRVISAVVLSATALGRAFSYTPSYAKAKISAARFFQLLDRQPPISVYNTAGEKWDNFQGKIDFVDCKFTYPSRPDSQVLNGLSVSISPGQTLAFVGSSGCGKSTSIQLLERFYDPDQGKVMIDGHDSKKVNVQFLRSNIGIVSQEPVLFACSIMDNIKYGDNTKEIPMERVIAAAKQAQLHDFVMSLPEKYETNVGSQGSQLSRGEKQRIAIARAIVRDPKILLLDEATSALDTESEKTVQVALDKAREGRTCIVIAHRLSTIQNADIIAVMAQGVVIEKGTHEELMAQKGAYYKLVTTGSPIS

For the molecule `CC(NC(C)(C)C)C(=O)c1cccc(Cl)c1` (stereo unspecified) [BUPROPION HYDROCHLORIDE], the IC50 (at Bile salt export pump; in experiment [1]; in experiment [2]; in experiment [3]) was over 133 µM each time.
For the molecule `CCN1CCC[C@H]1CNC(=O)c1c(OC)ccc(Br)c1OC` [REMOXIPRIDE], the half-maximal inhibitory concentration (IC50) (at Bile salt export pump; in experiment [1]; in experiment [2]; in experiment [3]) was over 133 µM in each case.
Consider `O=C(NC1CCN(CCc2c[nH]c3ccccc23)CC1)c1ccccc1` [INDORAMIN], for which the IC50 (on Bile salt export pump; in experiment [1]; in experiment [2]; in experiment [3]) was over 133 µM throughout.
As for `[H]/N=C(/N)N/C(=N/[H])NCCc1ccccc1` [PHENFORMIN], the IC50 (at Bile salt export pump; in experiment [1]; in experiment [2]; in experiment [3]) was over 133 µM each time.
With `CN(C)CCOc1ccc(/C(=C(/CCCl)c2ccccc2)c2ccccc2)cc1` [TOREMIFENE CITRATE], the IC50 at Bile salt export pump was 115 µM; in experiment [1], over 133 µM; in experiment [2] it was over 133 µM; in experiment [3] it was over 133 µM.
On to `C[C@H]1COc2c(N3CCN(C)CC3)c(F)cc3c(=O)c(C(=O)O)cn1c23` [LEVOFLOXACIN], for which the IC50 (at Bile salt export pump; in experiment [1]; in experiment [2]; in experiment [3]) was over 133 µM in each case.
As for `C=CCN1C[C@H](C(=O)N(CCCN(C)C)C(=O)NCC)C[C@@H]2c3cccc4[nH]cc(c34)C[C@H]21` [CABERGOLINE], the IC50 (at Bile salt export pump; in experiment [1]; in experiment [2]; in experiment [3]) was over 133 µM throughout.
`C[C@H](CS)C(=O)N1CCC[C@H]1C(=O)O` [CAPTOPRIL]: the IC50 (on Bile salt export pump; in experiment [1]; in experiment [2]; in experiment [3]) was over 133 µM in each case.
For `CO/N=C(\C(=O)N[C@@H]1C(=O)N2C(C(=O)OC(C)OC(C)=O)=C(COC(N)=O)CS[C@H]12)c1ccco1` (stereo partly specified) [CEFUROXIME AXETIL], the IC50 was over 133 µM on Bile salt export pump, 28 µM in experiment [1], over 133 µM in experiment [2] and over 133 µM in experiment [3].
Turning to `O=C(O)CCNC(=O)c1ccccc1` [BETAMIPRON], the IC50 (on Bile salt export pump; in experiment [1]; in experiment [2]; in experiment [3]) was over 133 µM in each case.
Consider `S=C=Nc1cccc2ccccc12` [1-NAPHTHYLISOTHIOCYANATE], for which the IC50 at Bile salt export pump was 69 µM; in experiment [1], over 133 µM; in experiment [2], over 133 µM; in experiment [3] it was over 133 µM.
As to `CN(C)/N=N/c1[nH]cnc1C(N)=O` [DACARBAZINE], the IC50 (on Bile salt export pump; in experiment [1]; in experiment [2]; in experiment [3]) was over 133 µM in each case.
As to `C[C@@H]1CCN(C(=O)CC#N)C[C@@H]1N(C)c1ncnc2[nH]ccc12` [TOFACITINIB], the IC50 (on Bile salt export pump; in experiment [1]; in experiment [2]; in experiment [3]) was over 133 µM throughout.
For the molecule `Cc1nc2ccc(CN(C)c3ccc(C(=O)N[C@@H](CCC(=O)O)C(=O)O)s3)cc2c(=O)[nH]1` [RALTITREXED], the IC50 (on Bile salt export pump; in experiment [1]; in experiment [2]; in experiment [3]) was over 133 µM throughout.
Turning to `Cc1nnc(SCC2=C(C(=O)O)N3C(=O)[C@@H](NC(=O)Cn4cnnn4)[C@H]3SC2)s1` [CEFAZOLIN SODIUM], the IC50 at Bile salt export pump was over 133 µM; in experiment [1], 54.2 µM; in experiment [2] it was over 133 µM; in experiment [3], over 133 µM.
`COc1cccc2c1C(=O)c1c(O)c3c(c(O)c1C2=O)C[C@@](O)(C(=O)CO)C[C@@H]3O[C@H]1C[C@H](N)[C@H](O)[C@H](C)O1` [DOXORUBICIN]: the IC50 at Bile salt export pump is over 133 µM; in experiment [1] it was 19 µM; in experiment [2], over 133 µM; in experiment [3] it was over 133 µM.
As for `CC[C@@]1(O)C(=O)OCc2c1cc1n(c2=O)Cc2cc3c([N+](=O)[O-])cccc3nc2-1` [RUBITECAN], the IC50 on Bile salt export pump is over 133 µM; in experiment [1], 5.1 µM; in experiment [2] it was 60.5 µM; in experiment [3] it was 10.2 µM.
Taken in the same sequence, the figures for `CC(C)(C)c1ccc(C(=O)CCCN2CCC(OC(c3ccccc3)c3ccccc3)CC2)cc1` [EBASTINE] were over 133 µM, over 133 µM, over 133 µM and over 133 µM.
On the same counts, the results for `OCCN1C[C@H](O)[C@@H](O)[C@H](O)[C@H]1CO` [MIGLITOL] are over 133 µM, over 133 µM, over 133 µM and over 133 µM.
On the same counts, the results for `CO/N=C(\C(=O)N[C@@H]1C(=O)N2C(C(=O)O)=C(COC(C)=O)CS[C@H]12)c1csc(N)n1` [CEFOTAXIME SODIUM] are over 133 µM, 24 µM, over 133 µM and over 133 µM.
In the case of `C[C@H]1c2cccc(O)c2C(=O)C2=C(O)[C@]3(O)C(=O)C(C(N)=O)=C(O)[C@@H](N(C)C)[C@@H]3[C@@H](O)[C@@H]21` [DOXYCYCLINE HYDROCHLORIDE], the IC50 (on Bile salt export pump; in experiment [1]; in experiment [2]; in experiment [3]) was over 133 µM in each case.
`O=S(=O)(O)CCS` [MESNA]: the IC50 (on Bile salt export pump; in experiment [1]; in experiment [2]; in experiment [3]) was over 133 µM throughout.
With `NC(=O)CN1CCCC1=O`, the IC50 (at Bile salt export pump; in experiment [1]; in experiment [2]; in experiment [3]) was over 133 µM throughout.
Consider `Cc1ccc(C(=O)Nc2ccc(S(=O)(=O)O)c3cc(S(=O)(=O)O)cc(S(=O)(=O)O)c23)cc1NC(=O)c1cccc(NC(=O)Nc2cccc(C(=O)Nc3cc(C(=O)Nc4ccc(S(=O)(=O)O)c5cc(S(=O)(=O)O)cc(S(=O)(=O)O)c45)ccc3C)c2)c1` [SURAMIN], for which the IC50 was over 133 µM at Bile salt export pump, over 133 µM in experiment [1], 36.8 µM in experiment [2] and over 133 µM in experiment [3].
`CN(C(=O)c1c(O)c2ccccc2n(C)c1=O)c1ccccc1` [ROQUINIMEX]: the IC50 (at Bile salt export pump; in experiment [1]; in experiment [2]; in experiment [3]) was over 133 µM each time.
With `Cc1cc(=O)n(-c2ccccc2)n1C` [ANTIPYRINE], the IC50 (on Bile salt export pump; in experiment [1]; in experiment [2]; in experiment [3]) was over 133 µM throughout.
As to `Clc1ccc(CO/N=C(\Cn2ccnc2)c2ccc(Cl)cc2Cl)c(Cl)c1` [OXICONAZOLE NITRATE], the IC50 was 49.3 µM on Bile salt export pump, over 133 µM in experiment [1], over 133 µM in experiment [2] and over 133 µM in experiment [3].
Regarding `COC(=O)[C@H](c1ccccc1Cl)N1CCc2sccc2C1` [CLOPIDOGREL BISULFATE], the IC50 is 72 µM on Bile salt export pump, over 133 µM in experiment [1], over 133 µM in experiment [2] and over 133 µM in experiment [3].
With `CNCC[C@H](Oc1cccc2ccccc12)c1cccs1` [DULOXETINE HYDROCHLORIDE], the IC50 (at Bile salt export pump; in experiment [1]; in experiment [2]; in experiment [3]) was over 133 µM throughout.
